Numbers after ± are expanded uncertainties.
Conditions: Fluid (supercritical or subcritical phases), Bellows volumetry

CCC [propane]
mass density [kg/m3]
Conditions | 360 K | 400 K | 440 K | 500 K | 550 K | 600 K
50000 kPa | 520.66 ± 0.88 | 488.73 ± 0.88 | 457.63 ± 0.76 | 413.41 ± 0.76 | 380.04 ± 0.76 | 349.68 ± 0.76
60000 kPa | 532.63 ± 0.88 | 503.01 ± 0.88 | 474.47 ± 0.76 | 434.04 ± 0.76 | 403.51 ± 0.76 | 375.39 ± 0.76
70000 kPa | 543.15 ± 0.88 | 515.19 ± 0.88 | 488.72 ± 0.76 | 450.94 ± 0.76 | 422.59 ± 0.76 | 396.1 ± 0.76
80000 kPa | 552.56 ± 0.88 | 525.98 ± 0.88 | 500.95 ± 0.76 | 465.53 ± 0.76 | 438.76 ± 0.76 | 413.71 ± 0.76
90000 kPa | 560.92 ± 0.88 | 535.66 ± 0.88 | 511.84 ± 0.76 | 477.92 ± 0.76 | 452.84 ± 0.76 | 428.88 ± 0.76
100000 kPa | 568.67 ± 0.76 | 544.28 ± 0.76 | 521.48 ± 2.9 | 489.12 ± 2.9 | 464.72 ± 2.9 | 442.26 ± 2.9
120000 kPa | 582.46 ± 0.76 | 559.78 ± 0.76 | 538.35 ± 2.9 | 508.54 ± 2.9 | 485.88 ± 2.9 | 465.07 ± 2.9
140000 kPa | 594.1 ± 0.76 | 573.12 ± 0.76 | 552.91 ± 2.9 | 524.91 ± 2.9 | 503.64 ± 2.9 | 484.26 ± 2.9
160000 kPa | 605.2 ± 0.76 | 584.9 ± 0.76 | 565.72 ± 2.9 | 539.2 ± 2.9 | 518.92 ± 2.9 | 500.33 ± 2.9
180000 kPa | 614.83 ± 0.76 | 595.54 ± 0.76 | 577.17 ± 2.9 | 551.84 ± 2.9 | 532.53 ± 2.9 | 514.78 ± 2.9
200000 kPa | 624.04 ± 0.76 | 605.48 ± 0.76 | 587.69 ± 2.9 | 563.13 ± 2.9 | 544.69 ± 2.9 | 527.68 ± 2.9

Reference: the NIST ThermoML archive (doi:10.1007/s10765-012-1383-x)
